In patent US10828253B2, “Composition for injection” (HK INNO.N CORPORATION, priority 2017, dated 2020) one finds solubility data, which are given here for 1 molecule.

This data set in a line: water solubility of the compound of Formula 1. The class given is physicochemical. On the procedure:
However, the compound has a very low water solubility (0.02 mg/ml, pH 6.8), which increases (0.7 mg/ml, pH 3.0) under acid conditions, but not enough to have a significant effect. It is water insoluble and has a very low solubility, in particular, under neutral or higher pH environments, so it has a much difficulty in being formulated into preparations through its dissolution and stabilization in aqueous solutions. Also, its degradation products are increased under acid conditions, thus leading to poor stability and causing a restriction on selection of salts. Furthermore, in case of using solubilizers such as surfactants, etc., to improve the solubility, it requires an excessive amount of excipients, thus causing difficulty.

For the molecule `Cc1nc2c(O[C@H]3CCOc4cc(F)cc(F)c43)cc(C(=O)N(C)C)cc2[nH]1` [Formula 1, (S)-4-((5,7-difluorochroman-4-yl)oxy)-N,N-2-trimethyl-1H-benzo[d]imidazole-6-carboxamide], the solubility (in general, the dissolved amount per volume that the medium holds) by setting is: (aqueous buffer, pH 3.0, acid conditions) 700 µg/mL; (pH 6.8, aqueous buffer) 20 µg/mL.
